In patent US20090203636A1, “Prevention and Treatment of Cancer and Other Diseases” (priority 2006, published 2009):
“And” between values parts separate entries of the source, which are not always exact repeats. Equal values may be shown once.

What was measured:
HeLa cells [1] = assay type: in vivo
Procedure: For in vivo assay, appropriate host, e.g., nude (nu/nu) mice of about 5-7 weeks old are obtained and maintained in pathogen-free conditions. Approximately, 1×10^6 HeLa cells (and/or U-2 OS cells) contained in 200 μl of serum-free media are delivered to all animals, briefly anaesthetize with Metofane, by subcutaneous (s.c.) injection in flank. Then the mice are divided into experimental group and control group. Appropriate concentrations of compounds of the formulas (I) to (VI), ACV, PCV and/or GCV are used for tumor growth progression or regression assays.
In one embodiment, impairment of s.c. tumor growth or time to progression rather than decrease in size of an established tumor (regression) is assessed. In this embodiment, starting from the day zero, mice in the experimental group receive GCV in drinking water ad libitum. Concentration of GCV in water can be 2 mg/ml. Fresh solution of GCV is supplied every 3 days. Mice in the control group receive only drinking water. Tumors are measured every 2-3 days. Mice are sacrificed when tumors exceed 1 cm^3. Tumor volume is calculated with formula 4/3πr^3, where r is the radius of the tumor.
Experimental group received valganciclovir in drinking water from day 0. Human cancer HeLa cell culture was purchased from ATCC. In all, 12 CD1/-nu and 12 NMRiI/-nu nude mice were purchased from Charles River Laboratories, Charles River Deutschland GmbH. These nude mice were injected s.c. with 3×10^5 Hela cells. Mice in the experimental groups (6 mice per strain) were exposed to Valcyte® (val-ganciclovir) in drinking water (1 mg/ml) from day 0.
(a) In vivo assays using Valganciclovir and zidovudine (AZT) combination: Human cancer HeLa cell culture was purchased from ATCC. A total of 24 CD1/-nu nude mice were purchased from Charles River laboratories, Charles River Deutschland GmbH. These mice were injected s.c. with 1×10^5 HeLa cells. The tumor volumes were determined by measurement of maximal and minimal diameters of the tumor. The calculations were conducted using the formula V=4/3 πRmax×Rmin^2, where Rmax−½ of maximal diameter of the tumor, and Rmin−½ of minimal diameter of the tumor. nude mice were injected s.c. with 1×10^5 Hela cells.
Of the 12 treated mice, after 20 days of double cocktail treatment, six mice were administered with a triple cocktail (Valcyte®+Retrovir®+ddI at the dose of 1 mg/ml each in drinking water for a further period 21 days (see Example 7 below) and only six mice continued to receive the double cocktail for another 21 days at which time tumor measurements were taken for all mice injected with HeLa cells. Of the remaining 12 mice injected with HeLa cells but untreated with any cocktail or anticancer agent thus far, six were maintained as controls for the rest of the duration of the experiment. The other six were treated with Xeloda® 67 days after the injection of HeLa cells (see Example 7 below).
As mentioned in Example 5 above, a total of six mice, after 20 days of double cocktail treatment, were administered with a triple cocktail (Valcyte®+Retrovir®+ddI at the dose of 1 mg/ml each in drinking water) for a further period 21 days. After 14 days of triple cocktail treatment, Xeloda® at a concentration 1 mg/ml was added to the triple cocktail. Six mice previously untreated with any drug for 67 days after the injection of HeLa cells were treated with Xeloda® at a concentration 1 mg/ml in drinking water. Tumor measurements were taken in all mice 75 days following the injection of HeLa cells.

[2] = test system: inoperable carcinoma of stomach; assay type: in vivo, human; settings: one patient
Procedure: (a) Background therapy: 1 tablet of Retrovir® (AZT) 300 mg and 1 tablet of Zovirax™ (acyclovir, Glaxo Welcome), 400 mg/Valcyte® (valganciclovir) 450 mg/Valtrex® (Val-ACV) 500 mg all BID. Different acyclic nucleoside analogs were used during the 83 days of background therapy for reasons related to market availability.

MH22A cells = test: MH22a hepatoma tumors in C3HA mice, Cocktails 1-6 followed by added Xeloda (Example 10c, second experiment); assay type: in vivo, C3HA inbred mice
Procedure: In Vivo assays using the compounds of the formulas (I) to (IV) and valine esters of formulas I and II each in a triple cocktail with other nucleoside analogs and tumor in combination with AZT and ddI were carried out as follows:
8-10 weeks old male C3HA inbred mice (immunocometent mice) were purchased from Laboratory Animals Breeding Facility of Russian Academy of Medical Science (Rappalovo, Leningrad region). 3×10^5 MH22a cells were injected s.c. into back flank of 200 mice. Ten days after the injections, mice bearing developing tumors (14.15 mm^3) (the tumor volume calculated using the formula π/6 DmaxDmin^2) were selected and randomly divided into different experimental groups as set forth below:
Cocktail 1—Valacyclovir (0.166 mg/ml)+AZT (0.1 mg/ml)+ddI (0.066 mg/ml)−40 mice;
Cocktail 2—SN-1 (1 mg/ml)+AZT (0.1 mg/ml)+ddI (0.066 mg/ml)−10 mice;
Cocktail 3—SN-3 (1 mg/ml)+AZT (0.1 mg/ml)+ddI (0.066 mg/ml)−10 mice;
Cocktail 4—SN4 (1 mg/ml)+AZT (0.1 mg/ml)+ddI (0.066 mg/ml)−10 mice;
cocktail 5—Val-SN-1 (0.166 mg/ml)+AZT (0.1 mg/ml)+ddI (0.066 mg/ml)−20 mice; and
Cocktail 6—Val-SN-2 (0.166 mg/ml)+AZT (0.1 mg/ml)+ddI (0.066 mg/ml)−20 mice; and
Control group—Capecitabine (Xeloda®) (1 mg/ml) in drinking water-mice.
Valacyclovir (Valtrex® manufactured by GlaxoSmithKline) is a prodrug of acyclovir, which is an acyclic nucleoside analog. Didanosine (ddI) and AZT are non-acyclic-nucleoside analogs. The drugs, at the concentrations indicated above, were administered to the mice in drinking water. Two weeks following the cocktail treatments Xeloda® (1 mg/ml) was added to each of the cocktails and continued for the remaining experimental period. In the control group, mice were treated only with Xeloda® (1 mg/ml) in drinking water and this treatment started at the same time as the Xeloda® treatments in the cocktail groups. […] Tumor volumes (mm^3) in each injected mice were calculated, using the formula π/6 DmaxDmin^2, every week for four consecutive weeks following the commencement of the treatment with the drugs.

U-2 OS cells [3] = test: Telomere length (flow cytometry, PNA probe), cell cycle distribution (PI), apoptosis and TRAP status in U-2 OS cells; assay type: cell-based, human
Procedure: (§1) The ALT cell lines were treated with therapeutic concentrations of AZT, to determine if slippage telomeric DNA synthesis could be inhibited by AZT-TP, and thereby induce telomere shortening. Telomere length in AZT treated and untreated cell lines was measured by flow cytometry with a telomere specific peptide nucleic acid (PNA) probe. To determine cell cycle distribution, cells were stained with propidium iodide (PI).
Rate of DNA synthesis was determined by incorporation of 5-bromodeoxyuridine (BdU). […] It is important to note that changes in cell cycle distribution, DNA synthesis and telomere length were rapid and could be detected after only 10 days of AZT treatment.
Telomere length in untreated and GCV treated cells was measured by flow cytometry with a telomere-specific PNA probe as described above.
To determine cell cycle distribution, cells were stained with propidium iodide (PI).
(§2) Both telomerase positive (Hela) telomerase negative (U-2 OS) cell lines were used. Appropriate assays were performed to detect and confirm telomerase/L1RT specific activity in these cells.
(§3) The U-2 OS (osteosarcoma) and HeLa (uterine cervix) cell lines used in this study were obtained from American Type Culture Collection (Rockville, Md.). Cells were cultured in D-MEM media supplemented with 10% fetal calf serum at 37° C. in a humidified atmosphere of 5% CO2. For treatment of the cells with ACV, the media was supplemented with 3 μM of acyclovir (acyclovir, TEVA Pharm. Ind. Ltd, Israel). For treatment of the cells with GCV, the media was supplemented with 1.5 μM of GCV (Cymevene, Hoffman-La Roche). For treatment of the cells with PCV, the media was supplemented with 1.5 μM of PCV (penciclovir, Merck & Co.).
(§4) Real time TRAP assay was performed as described (Wege et al., SYBR Green real-time telomeric repeat amplification protocol for the rapid quantification of telomerase activity. Nucleic Acids Res. 2003; 31(2):E3-3). For telomere length measurement by flow cytometry, cells were stained with telomere specific FITC conjugated (C3TA2)3 PNA (Applied Biosystems) probe and contrastained with 0.06 μg/ml PI as described by Rufer, N., Dragowska, W., Thornbury G., Roosnek, E., Lansdorp P. M. Telomere length dynamics in human lymphocyte subpopulations […]. Nat. Biotechnol. 16, 743-747 (1998)).
(a) In vitro arrays: U-2 OS cells were incubated with 0.2 μM of AZT for 22 days. Actively growing clones were analyzed by flow-FISH with telomere specific PNA probe, and in real time TRAP assay using HeLa cells as positive control. Isolated actively growing clones were different from parental cells in DNA content and telomere length.
(§5) Telomere length in SN 1 or SN 2 treated and untreated cell lines was measured by flow cytometry with a telomere—specific peptide nucleic acid PNA) probe. To determine cell cycle distribution, cells were stained with propidium iodide (PI).
(§6) The U-2 OS (osteosarcoma) and Hela (uterine cervix) cell lines used in this study were obtained from American Type Culture Collection (Rockville, Md.). Cells were cultured in D-MEM media supplemented with 10% fetal calf serum at 37° C. in a humidified atmosphere of 5% CO2. For treatment of the cells with SN 1 or SN 2, the media was supplemented with 1.5 μM of SN1 or SN2.
(§7) For telomere length measurement by flow cytometry, cells were stained with telomere specific FITC conjugated (C3TA2)3 PNA (Applied Biosystems) probe and contra-stained with 0.06 μg/ml PI as described by Rufer, N., Dragowska, W., Thornbury G., Roosnek, E., Lansdorp P. M. Telomere length dynamics in human lymphocyte subpopulations […]. Nat. Biotechnol. 16, 743-747 (1998)).

[4] = test system: Saos-2 osteosarcoma cells; test: Telomere length (flow cytometry, PNA probe), cell cycle distribution (PI) and apoptosis in Saos-2 cells; assay type: cell-based, human; settings: therapeutic concentrations of AZT, 14 days
Procedure: as §1

HeLa cells [5] = test: Telomere length (flow cytometry, PNA probe), cell cycle distribution (PI) and apoptosis in HeLa cells; assay type: cell-based, human
Procedure: as §1
(§8) The origin of the cell lines are uterine cervix (HeLa) and epithelial ovarian (NuTu-19). Cells were cultured in D-MEM media supplemented with 10% fetal calf serum at 37° C. in a humidified atmosphere of 5% CO2. For treatment of the cells with GCV, the media was supplemented with 1.5 μM of GCV (Cymevene, Hoffman-La Roche). For treatment of the cells with ACV, the media was supplemented with 3 μM of Acyclovir (Acyclovir, TEVA Pharm. Ind. Id. Israel).
as §4, §2, §3, §5, §6, §7

NuTu-19 cells = test: Telomere length (flow cytometry, PNA probe), cell cycle distribution (PI) and apoptosis in NuTu-19 cells; assay type: cell-based; settings: AZT even at elevated concentrations e.g., 100 μM
Procedure: as §8, §4

U-2 OS/RAS cells = test: Prevention and treatment of telomerase negative (ALT) tumors in nude mice injected s.c. with U-2 OS/RAS cells; assay type: in vivo
Procedure: (a) Nude mice injected with U-2 OS/RAS cells: Crl1:CD1-/nu mice were purchased from Charles River Laboratories, Charles River Deutschland GmbH (Dec. 23, 2004). A total of 12 Nude mice were injected s.c. with 6×10^5 U-2 OS/RAS cells. These mice were divided into experimental and control groups.
The experimental group of mice started to receive AZT in drinking water (1 mg/ml) from the day one. In the control group, mice developed tumors (in N1 by the 26th day; in N2 by the […] and in N3 by the 41st day following the tumor cell injection).
All mice without tumors were sacrificed. One mouse from control group that developed tumors first was sacrificed on the 51 day following the tumor cell injection. Tumor tissue was mechanically separated to raise cell suspension. About 20 million of cells were seeded in McCoy's 5 A media supplemented with 10% FCS. The tissue cultured cells were used for further analysis.
Two mice from control group with tumors started to receive AZT in drinking water (1 mg/ml) from day 52. One mouse had died on day 80. Second was sacrificed on day 110 following the tumor cell injection. Tumor tissue was collected and stored at −80° C. for further analysis.

U-2 OS cells [6] = settings: therapeutic concentrations, 14 days; reported in WO 2005/069880; cited from earlier work
[7] = test system: Saos-2 osteosarcoma cells; settings: therapeutic concentrations, 14 days; reported in WO 2005/069880; cited from earlier work
[8] = Xeloda 1 mg/ml added to cocktails after two weeks

Row | SMILES | average size of tumors less compared to the untreated control group (HeLa cells [1]; Xeloda 1 mg/ml in drinking water from day 67) [%] | survival (HeLa cells [1]; drugs 1 mg/ml each in drinking water, 75 days following injection of HeLa cells) [%] | Tumor Volume (mm^3) in nude mice 75 days following the injection of HeLa cells (HeLa cells [1]; mean value of 4 mice) | toxicity in the patient [2] | Number tumor-free (MH22A cells; 4 weeks of treatment, Xeloda 1 mg/ml added to cocktails after two weeks) | Number died during the 4 week treatment period (MH22A cells; [8]) | Number showing tumors after four weeks of treatment (MH22A cells; [8]) | Tumor volume at the end of the experimental period (MH22A cells; individual tumor-bearing mice, formula π/6 DmaxDmin^2) | telomerase status (real time TRAP assay) of actively growing clones (U-2 OS cells [3]; 0.2 μM of AZT for 22 days) | telomere length and rate of DNA synthesis (BdU incorporation) (U-2 OS cells [3]; AZT for different amounts of time) | telomere length, apoptosis and cell cycle distribution (U-2 OS cells [3]; therapeutic concentrations of AZT, 14 days) | telomere length, apoptosis and cell cycle distribution [4] | telomere length or cell cycle distribution (HeLa cells [5]; AZT at the chosen concentration, same conditions as ALT cells) | telomere length or cell cycle distribution (HeLa cells [5]; AZT even at elevated concentrations e.g., 100 μM) | telomere length or cell cycle distribution (NuTu-19 cells) | growth of established ALT tumors (U-2 OS/RAS cells; AZT in drinking water (1 mg/ml) from day 52) | tumor development (U-2 OS/RAS cells; AZT in drinking water (1 mg/ml) from day one, three of six control mice developed tumors) | telomere length, cell cycle and apoptosis (U-2 OS cells [6]) | telomere length, cell cycle and apoptosis [7]
1 | CCCCCOC(=O)Nc1nc(=O)n([C@@H]2O[C@H](C)[C@@H](O)[C@H]2O)cc1F [Xeloda®] | 17 | 66 | 1811.0 (mean value) mm^3 | caused toxicity in the patient | 0 | 2 | 6 | 6288 mm^3 (2×) and 10480 mm^3 and 1152 mm^3 and 2146 mm^3 and 4192 mm^3 | – | – | – | – | – | – | – | – | – | – | –
2 | Cc1cn([C@H]2C[C@H](N=[N+]=[N-])[C@@H](CO)O2)c(=O)[nH]c1=O [AZT, azido-2′,3′-dideoxythymidine] | – | – | – | – | – | – | – | – | positive for telomerase | progressive telomere shortening and decrease in DNA synthesis | telomere shortening, massive apoptosis and G2 arrest | telomere shortening, massive apoptosis and G2 arrest | no effect on telomere length or cell cycle distribution | no effect on telomere length or cell cycle distribution | no effect on telomere length or cell cycle distribution | slowing of tumor growth | No one mice from AZT treated group had developed tumors | telomere shortening, G2 arrest and massive apoptosis | telomere shortening, G2 arrest and massive apoptosis
